Test results from paper PMC7096246 (Journal of pharmaceutical sciences, 2020).
Converted amounts (≈) assume the structure as drawn.

Columns and labels:
[1] = cited from earlier work
[2] = ref DrugBank database, DB01229 and DB08889; cited from earlier work
[3] = Saturation solubility in 50% FBS/PBS; type: physicochemical
[4] = Water solubility measured in the current study; type: physicochemical

SMILES	plasma protein binding [1]	water solubility as reported in DrugBank [2] [µg/mL]	solubility at 24 h [3] [µg/mL]	solubility at 24 h [4] [µg/mL]
CC(=O)O[C@H]1C(=O)[C@@]2(C)[C@H]([C@H](OC(=O)c3ccccc3)[C@]3(O)C[C@H](OC(=O)[C@H](O)[C@@H](NC(=O)c4ccccc4)c4ccccc4)C(C)=C1C3(C)C)[C@]1(OC(C)=O)CO[C@@H]1C[C@@H]2O [PTX, paclitaxel]	88-98%	–	–	–
CC(C)C[C@H](NC(=O)[C@H](CCc1ccccc1)NC(=O)CN1CCOCC1)C(=O)N[C@@H](Cc1ccccc1)C(=O)N[C@@H](CC(C)C)C(=O)[C@@]1(C)CO1 [CFZ, carfilzomib]	98%	4.8 (≈ 6.67 µM)	9.3 ± 0.2 (≈ 12.9 µM)	1.3 ± 0.2 (≈ 1.81 µM)
